# Measurements taken from patent US9492460B2, “Carbazole compounds useful as bromodomain inhibitors” (Bristol-Myers Squibb Company, priority 2013, dated 2016).
# Target: T1, bromodomain BRD4 (44-168), BRD4 (333-460), and BRD4 (1-477 or 44-460) (Homo sapiens, UniProt O60885)
# T1 construct: BRD4(44-168), BRD4(333-460), BRD4(44-460), BRD4(1-477), O60885-1; fused on or other part: N-terminal BirA biotinylation motif, biotinylated; The TVMV-cleavable His6 tag is removed, except in some BRD4(44-460) runs detected with anti-His terbium cryptate
# Experiment: Time Resolved Fluorescence Resonance Energy Transfer (TR-FRET) binding assay
# Settings: one of the FRET assays described
row,SMILES,IC50 [nM]
1,"Cc1noc(C)c1-c1cc(C(N)=O)c2c3ccc(C(C)(C)O)c(F)c3n(C(c3ccc(F)cc3)C3CCOCC3)c2c1 (single isomer, unassigned) [Example 224, 2-(Dimethyl-1,2-oxazol-4-yl)-8-fluoro-9-[(4-fluorophenyl)(oxan-4-yl)methyl]-7-(2-hydroxypropan-2-yl)-9H-carbazole-4-carboxamide]",< 50
2,"Cc1noc(C)c1-c1cc(C(N)=O)c2c3ccc(C(C)(C)O)c(F)c3n(C(CCC(F)(F)F)c3ccccc3)c2c1 (single isomer, unassigned) [Example 231, 2-(dimethyl-1,2-oxazol-4-yl)-8-fluoro-7-(2-hydroxypropan-2-yl)-9-[4,4,4-trifluoro-1-phenylbutyl]-9H-carbazole-4-carboxamide]",< 50
3,"COc1ccc2c(c1)c1c(C(N)=O)cc(-c3c(C)noc3C)cc1n2C(C)c1ccccc1 (centres unmarked) [Example 176, 2-(3,5-dimethyl-4-isoxazolyl)-6-methoxy-9-(1-phenylethyl)-9H-carbazole-4-carboxamide]",< 50
4,"CNC(=O)c1cc(-c2c(C)noc2C)cc2c1c1cc(N3CCCOC3=O)ccc1n2Cc1ccc(Cl)c(F)c1 [Example 172, 9-(4-chloro-3-fluorobenzyl)-2-(3,5-dimethyl-4-isoxazolyl)-N-methyl-6-(2-oxo-1,3-oxazinan-3-yl)-9H-carbazole-4-carboxamide]",< 50
5,Cc1noc(C)c1-c1cc(C(N)=O)c2c3cc(C(=O)N4CC(C)OC(C)C4)ccc3n(Cc3ccccc3Cl)c2c1 (centres unmarked) [Example 33],< 50
6,Cc1noc(C)c1-c1cc(C(N)=O)c2c3cc(C(=O)N4CC(C)OC(C)C4)ccc3n(Cc3ccc(F)cc3)c2c1 (centres unmarked) [Example 32],< 50
7,Cc1csc(Cn2c3ccc(C(=O)N4CC(C)OC(C)C4)cc3c3c(C(N)=O)cc(-c4c(C)noc4C)cc32)n1 (centres unmarked) [Example 28],< 50
8,Cc1noc(C)c1-c1cc(C(N)=O)c2c3cc(C(=O)N4COCC4(C)C)ccc3n(Cc3ccccc3)c2c1 [Example 77],< 50
9,Cc1noc(C)c1-c1cc(C(N)=O)c2c3cc(C(=O)N4CCC(C)(O)CC4)ccc3n(Cc3ccccc3)c2c1 [Example 51],< 50
10,"Cc1noc(C)c1-c1cc(C(N)=O)c2c3cc(C(=O)N4CC(F)(F)C4)ccc3n(Cc3ccc(Cl)cc3)c2c1 [Example 95, 9-(4-chlorobenzyl)-6-((3,3-difluoro-1-azetidinyl)carbonyl)-2-(3,5-dimethyl-4-isoxazolyl)-9H-carbazole-4-carboxamide]",< 50
11,"Cc1noc(C)c1-c1cc(C(N)=O)c2c3ccc(C(C)(C)O)cc3n(C(c3ccccc3)C3(F)CCC3)c2c1 (single isomer, unassigned) [Example 221, 2-(Dimethyl-1,2-oxazol-4-yl)-9-[(1-fluorocyclobutyl)(phenyl)methyl]-7-(2-hydroxypropan-2-yl)-9H-carbazole-4-carboxamide]",< 50
12,"Cc1noc(C)c1-c1cc(C(N)=O)c2c3ccc(C(C)(C)O)cc3n(CC3CCOCC3)c2c1 [Example 197, 2-(3,5-dimethyl-4-isoxazolyl)-7-(1-hydroxy-1-methylethyl)-9-(tetrahydro-2H-pyran-4-ylmethyl)-9H-carbazole-4-carboxamide]",< 50
13,"Cc1noc(C)c1-c1cc(C(N)=O)c2c3cc(C(=O)N4C[C@@H](C)O[C@@H](C)C4)ccc3n(C(=O)c3ccccc3)c2c1 [Example 46, 9-benzoyl-2-(3,5-dimethylisoxazol-4-yl)-6-(cis-2,6-dimethylmorpholine-4-carbonyl)-9H-carbazole-4-carboxamide]",< 500
14,Cc1cccc(Cn2c3ccc(C(=O)N4CC(C)OC(C)C4)cc3c3ccc(-c4c(C)noc4C)cc32)c1 (centres unmarked) [Example 20],< 500
15,"Cc1noc(C)c1-c1cc(C(N)=O)c2c3ccc(C(=O)N4CCOCC4)cc3n(C(c3ccccc3)c3ccccc3)c2c1 [Example 196, 2-(3,5-Dimethyl-4-isoxazolyl)-9-(diphenylmethyl)-7-(4-morpholinylcarbonyl)-9H-carbazole-4-carboxamide]",< 50
16,"CCn1c2ccc(C(=O)N3C[C@@H](C)O[C@@H](C)C3)cc2c2ccc(-c3c(C)noc3C)cc21 [Example 2, 2-(3,5-dimethyl-4-isoxazolyl)-6-((cis-2,6-dimethyl-4-morpholinyl)carbonyl)-9-ethyl-9H-carbazole]",< 500
17,"CNC(=O)c1cc(-c2c(C)noc2C)cc2[nH]c3ccc(C(=O)N4CC(F)C4)cc3c12 [Example 101, 2-(3,5-dimethyl-4-isoxazolyl)-6-((3-fluoro-1-azetidinyl)carbonyl)-N-methyl-9H-carbazole-4-carboxamide]",< 500
18,"Cc1noc(C)c1-c1cc(C(N)=O)c2c3cc(N4CCCOC4=O)ccc3n(C(C)c3ccccc3)c2c1 (centres unmarked) [Example 158, 2-(3,5-dimethyl-4-isoxazolyl)-6-(2-oxo-1,3-oxazinan-3-yl)-9-(1-phenylethyl)-9H-carbazole-4-carboxamide]",< 50
19,"COc1ccc2c(c1)c1c(C(N)=O)cc(-c3c(C)noc3C)cc1n2Cc1ccccc1 [Example 177, 9-benzyl-2-(3,5-dimethyl-4-isoxazolyl)-6-methoxy-9H-carbazole-4-carboxamide]",< 50
20,"COC(=O)c1ccc2c3c(C#N)cc(-c4c(C)noc4C)cc3n(C(c3ccccc3)c3ccccc3)c2c1 [Example 191, Methyl 5-cyano-7-(3,5-dimethyl-4-isoxazolyl)-9-(diphenylmethyl)-9H-carbazole-2-carboxylate]",< 50
21,"Cc1noc(C)c1-c1cc(C(=O)NC(C)C)c2c3cc(C(=O)N4CC(F)C4)ccc3n(Cc3ccc(F)cc3)c2c1 [Example 127, 2-(3,5-dimethyl-4-isoxazolyl)-6-((3-fluoro-1-azetidinyl)carbonyl)-9-(4-fluorobenzyl)-N-isopropyl-9H-carbazole-4-carboxamide]",< 7500
22,Cc1noc(C)c1-c1cc(C(N)=O)c2c3cc(C(=O)N4CC(C)OC(C)C4)ccc3n(Cc3ccccc3C#N)c2c1 (centres unmarked) [Example 43],< 50
23,"Cc1noc(C)c1-c1cc(C(N)=O)c2c3cc(C(=O)N4C[C@@H](C)O[C@@H](C)C4)ccc3n(S(=O)(=O)c3ccccc3)c2c1 [Example 45, 2-(3,5-dimethylisoxazol-4-yl)-6-(cis-2,6-dimethylmorpholine-4-carbonyl)-9-(phenylsulfonyl)-9H-carbazole-4-carboxamide]",< 7500
24,Cc1noc(C)c1-c1cc(C(N)=O)c2c3cc(C(=O)N4CC(F)C4)ccc3n(Cc3ccccc3)c2c1 [Example 65],< 50
25,COc1cccc(Cn2c3ccc(C(=O)N4CC(C)OC(C)C4)cc3c3ccc(-c4c(C)noc4C)cc32)c1 (centres unmarked) [Example 14],< 500
26,"Cc1noc(C)c1-c1cc(C(N)=O)c2c3ccc(C(C)(C)O)cc3n(C(c3ccccc3)C3CCOCC3)c2c1 (single isomer, unassigned) [Example 199]",< 50
27,Cc1noc(C)c1-c1cc(C(N)=O)c2c3cc(C(=O)N4CCO[C@@H](C)C4)ccc3n(Cc3ccccc3)c2c1 [Example 57],< 50
28,"Cc1noc(C)c1-c1cc(C(=O)N(C)C)c2c3cc(C(=O)N4C[C@@H](C)O[C@@H](C)C4)ccc3n(Cc3ccccc3)c2c1 [Example 118, 9-benzyl-2-(3,5-dimethylisoxazol-4-yl)-6-(cis-2,6-dimethylmorpholine-4-carbonyl)-N,N-dimethyl-9H-carbazole-4-carboxamide]",< 500
29,Cc1noc(C)c1-c1cc(C(N)=O)c2c3cc(C(=O)N4CC(F)C4)ccc3n(Cc3ccc(Cl)cc3F)c2c1 [Example 87],< 50
